# Test results taken from PMC6539144, “Discovery of Novel Potential Reversible Peptidyl Arginine Deiminase Inhibitor” (International Journal of Molecular Sciences, 2019).
# Read-outs that look alike come from different tables or passages of the source.
# What was measured:
# GST-PAD4 [1] = biological target: T1, GST-PAD4 (Homo sapiens, UniProt Q9UM07); experiment: Histone H3 citrullination assay (purified calf thymus histone H3, western blot); assay type: biochemical; conditions: 50 µM, purified calf thymus histone H3, 0.5 mM DTT
# T1 construct: made in house
# T1 sequence (Q9UM07 whole entry): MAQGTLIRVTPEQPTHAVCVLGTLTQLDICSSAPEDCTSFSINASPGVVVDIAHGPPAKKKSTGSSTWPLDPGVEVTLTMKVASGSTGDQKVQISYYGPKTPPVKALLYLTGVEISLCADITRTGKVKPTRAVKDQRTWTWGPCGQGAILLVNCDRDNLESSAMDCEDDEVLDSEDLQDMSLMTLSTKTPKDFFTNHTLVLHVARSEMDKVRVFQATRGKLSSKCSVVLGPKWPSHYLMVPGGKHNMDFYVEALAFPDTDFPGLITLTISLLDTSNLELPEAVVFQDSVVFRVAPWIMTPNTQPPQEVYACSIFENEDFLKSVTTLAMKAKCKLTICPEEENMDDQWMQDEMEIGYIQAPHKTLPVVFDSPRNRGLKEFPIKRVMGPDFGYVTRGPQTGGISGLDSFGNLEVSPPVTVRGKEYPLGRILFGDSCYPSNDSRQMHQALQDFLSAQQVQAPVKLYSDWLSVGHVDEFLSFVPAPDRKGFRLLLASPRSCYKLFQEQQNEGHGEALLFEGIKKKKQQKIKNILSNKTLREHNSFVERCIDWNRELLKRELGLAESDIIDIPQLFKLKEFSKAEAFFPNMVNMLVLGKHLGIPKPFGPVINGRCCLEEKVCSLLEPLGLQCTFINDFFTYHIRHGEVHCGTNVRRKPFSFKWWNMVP
# Experimental: A total of 50 μM of compounds 1 to 6 were pre-incubated with 1 mU of GST-PAD4 for 30 min at 37 °C in the assay buffer (100 mM Tris pH 7.5, 10 mM CaCl2, 0.5 mM DTT). After that, 5 μg of purified calf thymus histone H3 was added to the reaction mixture and incubated further for 60 min at 37 °C. Three controls were performed in the assay: a DMSO (no compound) control and a known irreversible compound (Cl-amidine) at 50 and 200 μM. The citrullination was assessed by western blot using antibodies specific to citrullinated histone H3.
# The protein concentration in each sample was measured (A280nm) and normalized post-extraction. Next, histone proteins were separated in precast Novex^TM 16% Tris-Glycine 1 mm minigels (Invitrogen, Carlsbad, CA, USA). After electrophoresis, proteins were transferred into nitrocellulose membranes (0.2 μm) at 4 °C (transfer buffer: 10 mM CAPS, 20% methanol, pH 11). Membranes were blocked for 1 h at room temperature with 5% milk in TBST (1× Tris Buffered Saline, pH 8.0, with 0.1% Tween 20) and then incubated overnight at 4 °C with rabbit polyclonal anti-H3Cit antibody (Abcam, ab5103, Cambridge, UK) at a 1:1,000 dilution in the blocking solution. […] The signal was recorded with ChemiDoc image analyzer (Bio-Rad Laboratories, Hercules, CA, USA).
# human neutrophils [2] = experiment: Histone H3 citrullination in neutrophils stimulated with calcium ionophore; assay type: cell-based; conditions: 50 µM, 4 μM calcium ionophore stimulation
# Experimental: Neutrophils were isolated from human peripheral blood collected in acid citrate dextrose (ACD-A) by first spinning blood on Lymphoprep^TM (Axis Shield, Oslo, Norway), followed by dextran sedimentation using 3% dextran density gradient and hypotonic lysis of erythrocytes. Neutrophil purity was assessed to be >90% by flow cytometry. Cells were resuspended at 2 × 10^6 cells/mL in RPMI-1640 with HEPES (Thermo Fisher Scientific, Waltham, MA, USA) supplemented with 2 mM CaCl2 and pre-treated for 30 min with DMSO alone, 50 μM of compounds 1 to 6 or with either 50 or 200 μM of Cl-amidine. Cells were then stimulated with 4 μM calcium ionophore A23187 (Sigma-Aldrich, St. Louis, MO, USA) or left unstimulated as controls for 15 min at 37 °C, 5% CO2. Following stimulation, acid extraction of histones was performed according to Shechter et al.. […] The presence of citrullination in cellular histones was analyzed by Western blot.
# The protein concentration in each sample was measured (A280nm) and normalized post-extraction. […] The signal was recorded with ChemiDoc image analyzer (Bio-Rad Laboratories, Hercules, CA, USA).
# GST-PAD4 [3] = biological target: T1, GST-PAD4; experiment: GST-PAD4 inhibition assay (Dansyl-Gly-Arg citrullination, HPLC); assay type: biochemical; conditions: for Inhibition of GST-PAD4, initial screening: 0–250 µM inhibitor, 0.25 mM Dansyl-Gly-Arg; for Ki / IC50: GST-PAD4 preincubated 30 min with compound, 0.5 mM DTT, 10 mM CaCl2, 0.25 mM Dansyl-Gly-Arg, mean ± S.D., n = 3; for Ki: assuming competitive reversible mechanism; for IC50: linear regression
# Experimental: 1 mU of GST-PAD4 was used in the experiments. To optimize the concentration of the reducing agent, experiments were done using different concentrations of DTT in the assay buffer ranging from 0 to 10 mM and the final concentration for the presented results was 0.5 mM DTT. Following pre-incubation of enzyme in the assay buffer, the reaction was initiated by the addition of 0.25 mM Dansyl-Gly-Arg. The reaction was stopped after 1h (as described above), the sample was separated by HPLC and the relative activity of PAD in each sample was determined by measuring the peak area of the citrullinated Dansyl-Gly-Arg.
# The equilibrium inhibition constant (Ki) and IC50 were calculated from the fit of observed PAD activity against the respective compound concentration. Data was analyzed by the built-in Morrisson equation for tight-binding inhibition and represent the mean ± SD from at least three different determinations. IC50 values were determined by the linear regression to the initial fragment of the inhibition curve and are representative of inhibitor concentration required for the 50% reduction in the product release during the reaction.
# GST-PAD4 [4] = biological target: T1, GST-PAD4; experiment: GST-PAD4 inhibitory activity in the presence of serum and synovial fluid; assay type: biochemical; conditions: for Inhibitory potential on GST-PAD4 in the presence of serum / Inhibitory activity on GST-PAD4 in the presence of RA synovial fluid: 50 µM compound (Cl-amidine 50 and 200 µM); for Inhibitory potential on GST-PAD4 in the presence of serum: serum diluted 1:3, compared to in vitro conditions; for Inhibitory activity on GST-PAD4 in the presence of RA synovial fluid: synovial fluid diluted 1:3, 1 mM Dansyl-Gly-Arg
# Experimental: A total of 50 μM of compounds 1 to 6 were pre-incubated with 1 mU of GST-PAD4 for 30 min at 37 °C with serum from healthy blood donors, serum or synovial fluid from patients with RA, serially diluted from 1:1.5 to 1:30 in the assay buffer (100 mM Tris pH 7.5, 10 mM CaCl2). The reaction was then initiated by the addition of 1 mM Dansyl-Gly-Arg and stopped after 1h as described above. The assay included a negative and positive control: a DMSO (no compound) control and a known irreversible compound (Cl-amidine) at 50 and 200 μM. Samples were separated by HPLC.
# human neutrophils [5] = experiment: NET assay: extracellular DNA release (PicoGreen) from PMA-stimulated neutrophils; assay type: cell-based; conditions: 30 µM
# Experimental: Granulocyte-enriched fractions were harvested using a lymphocyte separation medium density gradient (PAN Biotech, Aidenbach, Germany). Neutrophils and erythrocytes were separated after 30 min of incubation with 1% polyvinyl alcohol (POCH, Gliwice, Poland). Neutrophils were collected from the upper layer and after centrifugation (280× g, 10 min), the residual erythrocytes were removed by lysis in water. Cells were then resuspended in serum-free DMEM without phenol red (Gibco, Waltham, MA, USA). To measure the extracellular DNA release, neutrophils were seeded at 2 × 10^6/well in 0.01 mg/mL poly-L-lysine (Sigma-Aldrich) coated 24-well plates and centrifuged (200× g, 5 min). Neutrophils were treated for 1h with DMSO alone, or with either 30 μM or 100 μM of compound 4 or Cl-amidine. Cells were then stimulated with 25 nM PMA (phorbol 12-myristate 13-acetate) or left unstimulated as controls for 3 h at 37 °C, 5% CO2. Following stimulation, the cell medium was collected and the extracellular DNA was quantified using the Quant-iT^TM PicoGreen® dsDNA Reagent (QPG; Invitrogen, Carlsbad, CA, USA). The 1:200 dilution of QPG in TE buffer (10 mM Tris, 1 mM EDTA, pH 7.5) and 90 μL of TE buffer was added to 10 μL of the supernatant containing the extracellular DNA and fluorescence was measured with an excitation wavelength 480 nm and emission wavelength 520 nm.
# human neutrophils [6] = experiment: NETs imaging assay (DNA and histone H2A immunostaining); assay type: cell-based; conditions: 100 µM, PMA stimulation
# Experimental: For the NETs imaging assays, neutrophils were allowed to adhere to poly-L-lysine coated coverslips (5 × 10^5 cells/coverslip) for 30 min at 37 °C, 5% CO2. Neutrophils were then treated for 1 h with DMSO alone, or 100 μM of compound 4 or Cl-amidine. Neutrophils were then stimulated with 25 nM PMA or left unstimulated as controls for 3 h at 37 °C, 5% CO2. Neutrophils were fixed with 3.7% formaldehyde for 10 min, washed three times with PBS and blocked (5% FBS, 1% BSA, 0.05% Tween, 2 mM EDTA in PBS) for 1 h. Cells were washed and treated with 0.1% saponin (Sigma-Aldrich) in PBS for 30 min. Cells were stained first with rabbit polyclonal anti-histone H2A antibody (Abcam), and then with allophycocyanin (APC) F(ab’)2 goat anti-rabbit antibody (Jackson ImmunoResearch Lab Inc., Ely, UK) in the presence of 3% BSA in 0.1% saponin. Cells were counterstained with 1 µg/mL Hoechst 33258 dye (Invitrogen). Images were captured with a fluorescence microscope (Nikon Eclips Ti, Nikon, Konan, Tokyo).
# HisTag-PPAD = biological target: T2, HisTag-PPAD (Porphyromonas gingivalis, UniProt Q9RQJ2); experiment: HisTag-PPAD inhibition assay (Dansyl-Gly-Arg citrullination, HPLC); assay type: biochemical; conditions: 0–250 µM inhibitor, 0.25 mM Dansyl-Gly-Arg
# T2 construct: made in house
# T2 sequence (Q9RQJ2 44-556): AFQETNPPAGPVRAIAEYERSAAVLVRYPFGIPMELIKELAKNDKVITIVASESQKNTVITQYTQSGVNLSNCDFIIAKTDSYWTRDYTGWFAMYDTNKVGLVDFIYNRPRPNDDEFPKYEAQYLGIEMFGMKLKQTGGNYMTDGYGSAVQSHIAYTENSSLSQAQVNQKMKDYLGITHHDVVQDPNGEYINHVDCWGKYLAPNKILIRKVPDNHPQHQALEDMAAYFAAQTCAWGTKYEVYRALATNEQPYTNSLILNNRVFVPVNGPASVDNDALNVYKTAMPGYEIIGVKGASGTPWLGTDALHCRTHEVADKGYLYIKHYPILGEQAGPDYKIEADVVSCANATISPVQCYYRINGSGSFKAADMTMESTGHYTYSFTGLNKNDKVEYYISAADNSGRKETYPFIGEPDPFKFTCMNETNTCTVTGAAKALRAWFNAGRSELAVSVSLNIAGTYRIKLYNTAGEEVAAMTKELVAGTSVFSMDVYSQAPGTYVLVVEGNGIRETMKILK
# PAD4 = conditions: cited from earlier work
# colitis = tested on: colitis; design: method as in PMID 21415415; conditions: cited from earlier work
# [7] = tested on: collagen-induced arthritis; conditions: cited from earlier work
# [8] = 50 µM compound, serum diluted 1:3, 1 mM Dansyl-Gly-Arg
# [9] = PAD4-specific reversible inhibitors, read-out: IC50
compound,measurement,setting,value
FC(F)(F)c1cc(SCc2ccc(Cl)c(Cl)c2)nc2cc3c(cc12)OCO3 [Compound 4],Inhibition of GST-PAD4-mediated citrullination of histone H3 (western blot),GST-PAD4 [1],significantly hampered
same,Inhibition of histone H3 citrullination in neutrophils (western blot),human neutrophils [2],visibly limited
same,"Inhibition of GST-PAD4, initial screening",GST-PAD4 [3],partially inhibited
same,Ki,GST-PAD4 [3],1 ± 0.16 µM
same,IC50,GST-PAD4 [3],1.88 ± 0.26 µM
same,Inhibitory potential on GST-PAD4 in the presence of serum,GST-PAD4 [4],retained their inhibitory potential
same,Inhibitory activity on GST-PAD4 in the presence of serum from RA patients,GST-PAD4 [4]; [8],did not diminish further
same,Inhibition of DNA release (NETs) from PMA-stimulated neutrophils,human neutrophils [5],limited ability to block DNA release
same,NET formation visualized by DNA and histone H2A immunostaining,human neutrophils [6],blocked the NET formation
same,Inhibition of HisTag-PPAD,HisTag-PPAD,no effect
CCn1c(-c2nc3cc(C(=O)N4CCCC(N)C4)cc(OC)c3n2C)cc2cccnc21 (stereo not drawn) [GSK199],IC50,PAD4; [9],0.2 µM
Cc1ccc(/C=c2/sc3ncnn3c2=O)o1 [Compound 1],"Inhibition of GST-PAD4, initial screening",GST-PAD4 [3],no inhibition
same,Inhibitory activity on GST-PAD4 in the presence of RA synovial fluid,GST-PAD4 [4],did not show any detectable inhibitory activity
same,Inhibitory activity on GST-PAD4 in the presence of serum from RA patients,GST-PAD4 [4]; [8],did not show any detectable inhibitory activity
same,Inhibitory activity on GST-PAD4 in the presence of serum from healthy donors,GST-PAD4 [4]; [8],did not show any detectable inhibitory activity
"N=C(CCl)NCCC[C@H](NC(=O)c1ccccc1)C(N)=O [Cl-amidine, N-α-Benzoyl-N5-(2-Chloro-1-Iminoethyl)-l-Ornithine Amide, reference compound]",Inhibition of GST-PAD4-mediated citrullination of histone H3 (western blot),GST-PAD4 [1],not effective
same,Clinical signs and symptoms of colitis,colitis,reduce clinical signs and symptoms of colitis
same,Severity of murine collagen-induced arthritis,[7],decrease in the severity
same,Inhibitory potential on GST-PAD4 in the presence of serum,GST-PAD4 [4],partially losing its inhibitory potential
same,Inhibitory activity on GST-PAD4 in the presence of RA synovial fluid,GST-PAD4 [4],ineffective
same,Inhibition of DNA release (NETs) from PMA-stimulated neutrophils,human neutrophils [5],inhibited this effect
same,NET formation visualized by DNA and histone H2A immunostaining,human neutrophils [6],blocked the NET formation
Cc1ccc(/C=c2/sc3ncnn3c2=O)o1 [Compound 2],Inhibition of histone H3 citrullination in neutrophils (western blot),human neutrophils [2],ineffective
same,"Inhibition of GST-PAD4, initial screening",GST-PAD4 [3],partially inhibited
same,Ki,GST-PAD4 [3],0.94 ± 0.31 µM
same,IC50,GST-PAD4 [3],1.4 ± 0.26 µM
same,Inhibitory potential on GST-PAD4 in the presence of serum,GST-PAD4 [4],retained their inhibitory potential
same,Inhibition of HisTag-PPAD,HisTag-PPAD,no effect
CN(C)c1ccc(O)c2c1C[C@H]1C[C@H]3[C@H](N(C)C)C(O)=C(C(N)=O)C(=O)[C@@]3(O)C(O)=C1C2=O [minocycline],IC50,PAD4; reversible inhibitors,millimolar
CC(=O)O[C@H]1C(=O)[C@@]2(C)[C@H]([C@H](OC(=O)c3ccccc3)[C@]3(O)C[C@H](OC(=O)[C@H](O)[C@@H](NC(=O)c4ccccc4)c4ccccc4)C(C)=C1C3(C)C)[C@]1(OC(C)=O)CO[C@@H]1C[C@@H]2O [taxol],IC50,PAD4; reversible inhibitors,millimolar
[H]/N=C(/N)N[C@H]1[C@H](O)[C@@H](O)[C@H](O[C@@H]2O[C@@H](C)[C@](O)(C=O)[C@H]2O[C@@H]2O[C@@H](CO)[C@H](O)[C@@H](O)[C@@H]2NC)[C@@H](N/C(N)=N\[H])[C@@H]1O [streptomycin],IC50,PAD4; reversible inhibitors,millimolar
